Laboratory results: patent publication US8580746B2, “Amide linkage cyclic natriuretic peptide constructs” (Palatin Technologies, Inc., priority 2006, dated 2013)
pEC50, pKi: −log10 of the molar value. Numbered stars: 1 amine (or outer) side, 2 acyl side, 3 side chain; on linkers, the order of the positions; unused ones are H or OH. Bridge positions count the residues as written; N and C are the ends. Square brackets hold non-standard residues; d marks the D form. Peptide text beside a SMILES is read from it. * marks the point of attachment. X1 = N=C(N)NCCC[C@H]1C(=O)N[C@@H](C(N)=O)CN1*; Glutaryl = O=C(CCCC(=O)[*:2])[*:1]; Suc = O=C(CCC(=O)[*:2])[*:1]; dNle = CCCC[C@@H](N)C(=O)O; Heptanoyl = CCCCCCC(=O)*; Nle = CCCC[C@H](N)C(=O)O; Orn = NCCC[C@H](N)C(=O)O; Dab = NCC[C@H](N)C(=O)O; Dap = NC[C@H](N)C(=O)O

How the values were obtained:
hNPR-A = target: T1, hNPR-A (Homo sapiens, UniProt P16066); assay: Accumulation of intracellular cGMP in HEK-293 cells that express recombinant hNPR-A; type: cell-based; conditions: HEK-hNPRA cells
T1 sequence (P16066 33-1061): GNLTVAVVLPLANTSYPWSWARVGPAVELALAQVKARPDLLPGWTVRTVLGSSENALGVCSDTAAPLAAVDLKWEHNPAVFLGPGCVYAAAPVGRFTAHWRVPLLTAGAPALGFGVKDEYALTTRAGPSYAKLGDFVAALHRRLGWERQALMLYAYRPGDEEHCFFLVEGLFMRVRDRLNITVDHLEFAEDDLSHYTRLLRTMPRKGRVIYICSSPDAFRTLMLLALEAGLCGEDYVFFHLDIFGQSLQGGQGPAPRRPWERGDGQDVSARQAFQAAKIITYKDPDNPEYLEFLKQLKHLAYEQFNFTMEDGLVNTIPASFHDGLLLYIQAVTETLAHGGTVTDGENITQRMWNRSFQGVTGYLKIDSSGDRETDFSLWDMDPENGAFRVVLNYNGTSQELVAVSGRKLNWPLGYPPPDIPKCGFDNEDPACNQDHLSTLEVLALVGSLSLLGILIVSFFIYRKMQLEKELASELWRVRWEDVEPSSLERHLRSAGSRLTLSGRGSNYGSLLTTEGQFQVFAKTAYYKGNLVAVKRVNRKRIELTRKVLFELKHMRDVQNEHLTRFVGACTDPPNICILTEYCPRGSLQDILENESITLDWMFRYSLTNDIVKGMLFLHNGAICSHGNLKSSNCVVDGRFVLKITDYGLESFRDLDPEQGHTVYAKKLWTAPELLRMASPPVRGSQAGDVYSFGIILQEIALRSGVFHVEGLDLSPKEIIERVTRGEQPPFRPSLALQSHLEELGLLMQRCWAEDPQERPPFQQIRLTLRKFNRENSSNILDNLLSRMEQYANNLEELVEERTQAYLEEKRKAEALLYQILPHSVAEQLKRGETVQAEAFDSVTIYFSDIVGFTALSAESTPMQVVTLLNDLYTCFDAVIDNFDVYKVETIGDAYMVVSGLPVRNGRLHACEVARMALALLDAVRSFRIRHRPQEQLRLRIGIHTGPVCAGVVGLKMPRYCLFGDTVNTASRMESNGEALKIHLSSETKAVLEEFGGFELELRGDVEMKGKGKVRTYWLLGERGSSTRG
Excerpt: (§1) A cDNA clone that encodes for human natriuratic peptide receptor A (NPRA) was purchased from Bio S&T Inc. (Montreal, Quebec). The cDNA clone was inserted into the mammalian expression vector pcDNA3.1 (Invitrogen) and transfected into HEK-293 cells. Stable clones were selected by culture of cells in the presence of G418 sulfate. Expression of NPRA was examined by binding of [^125I]-atrial natriuretic peptide ([^125I]-ANP) to membrane homogenates prepared from clonal cell lines. HEK-hNPRA cells were maintained in culture at 37° C. in 5% CO2 in Dulbecco's Modified Eagle's Medium (DMEM) supplemented with 10% FBS, G418 sulfate (300 μg/mL) sodium glutamate (0.29 mg/mL), penicillin (100 units/mL) and streptomycin (100 ug/mL).
Functional evaluation of constructs was performed by measuring the accumulation of intracellular cGMP in HEK-293 cells that express recombinant hNPR-A. HEK-NPRA cells were harvested by washing and centrifugation in Cell Dissociation Buffer (Gibco, Life Technologies). Pelleted cells were resuspended in Hank's Balanced Salt Solution (HBSS) containing 10 mM Hepes (pH 7.4), 5 mM MgCl2, […], 1 mM 1,10-phenanthroline and BSA (0.5 mg/mL). Following centrifugation, cells were resuspended in the above buffer supplemented with 0.5 mM 3-isobutyl-1-methylxanthine (IBMX). Cells (˜2×10^5/well) were added to each well of a 96-well plate and incubated for 15 minutes at 37° C. Following the pre-incubation period, cells were incubated for an additional 15 minutes in the presence of increasing concentrations of constructs. The reaction was terminated by lysis of the cells with temperature shock. The reaction plate was incubated in a dry ice/ethanol bath for 15 minutes followed by incubation at 90° C. for 10 minutes. Accumulation of cGMP was measured using the cGMP Flashplate RIA (Perkin-Elmer). Data analysis and EC50 values were determined by using nonlinear regression analysis with GraphPad Prism® software.

[1] = target: T2, human natriuratic peptide receptor A (NPRA) (Homo sapiens, UniProt P16066); assay: Competitive inhibition binding assay, [125I]-ANP, membrane homogenates from HEK-hNPRA cells; conditions: for Percent Inhibition: inhibition of [125I]-ANP binding to HEK-hNPRA membranes, construct concentration not stated; for pKi: [125I]-ANP competition, HEK-hNPRA membranes
T2 sequence (P16066 33-1061): T1 sequence (P16066 33-1061)
Excerpt: as §1
A competitive inhibition binding assay was performed using crude membrane homogenates prepared from HEK-hNPRA cells. To prepare membrane homogenates, cells were rinsed with phosphate-buffered saline and incubated for 15 minutes at 4° C. in hypotonic lysis buffer (10 mM Tris, pH 7.4+5 mM EDTA). Cells were transferred from plates to polypropylene tubes and homogenized. Homogenates were centrifuged at 25,000×g for 20 minutes. Pellets were resuspended in buffer consisting of 50 mM Tris (pH 7.4) and 1 mM EDTA, homogenized and centrifuged at 25,000×g for 20 minutes. Pellets were resuspended in buffer consisting of 100 mM Tris (pH 7.4) and 10 mM MgCl2 and stored at −80° C. until needed. On the day of an assay, homogenates were thawed and homogenized. Binding of [^125I]-ANP was carried out in buffer containing 25 mM Hepes (pH 7.4), 100 mM NaCl, 2 mM CaCl2, 5 mM MgCl2, 0.1% BSA and 1 mM 1,10-phenanthroline. Homogenates (1-10 μg protein/well) were incubated with [^125I]-ANP (25-30 pM) and increasing concentrations of competing ligands in Millipore filter plates for 120 minutes at 4° C. Assays were stopped by addition of cold wash buffer (phosphate-buffered saline) followed by filtration using a vacuum manifold. Bound radioactivity was determined using a gamma counter. Non-specific binding was defined by binding of [I^125]-hANP to non-transfected HEK293 membranes. Data were analyzed using GraphPad Prism® curve-fitting software.

[2] = Resistance to degradation by human neutral endopeptidase; type: in vitro ADME; conditions: isolated enzyme neprilysin; 50 μM concentration of human neutral endopeptidase; two hours; read-out: percent of construct remained after incubation for two hours
Description: (§2) In other tests, resistance to degradation by a 50 μM concentration of human neutral endopeptidase was determined for selected constructs.

neutral endopeptidase = assay: as above; type: in vitro ADME; conditions: human neutral endopeptidase (isolated enzyme); 50 μM concentration of human neutral endopeptidase; two hours; read-out: percent of construct remained after incubation for two hours
Description: as §2

[3] = in vivo
Description: as §2

Row | pEC50 (hNPR-A) | Percent Inhibition [1] | remaining at 2 h [2] | remaining at 2 h (neutral endopeptidase) | pKi [1] | half-life [3] | SMILES
1 | 8.00 | 68% |  |  |  |  | CCCCCCC(=O)N[C@H]1CNC(=O)CCCC(=O)NCCC[C@@H](C(=O)N[C@@H](Cc2ccc(O)cc2)C(=O)N2C[C@H](C(N)=O)NC(=O)[C@@H]2CCCNC(=N)N)NC(=O)[C@H](CO)NC(=O)[C@H]([C@@H](C)CC)NC(=O)[C@H](CCCNC(=N)N)NC(=O)[C@H](CC(=O)O)NC(=O)[C@H](CCCC)NC(=O)[C@H](CCCNC(=N)N)NC(=O)CNC(=O)[C@@H](C)NC(=O)[C@H](Cc2ccccc2)NC(=O)[C@@H](Cc2c[nH]cn2)NC1=O [1-31] (Heptanoyl-[Dap][dH]F[dA]GR[Nle]DRIS[Orn]Y-X1; linker 1-12 via Glutaryl)
2 | 9.15 | 100% |  |  |  |  | CCCCCCC(=O)N[C@H]1CNC(=O)CCC(=O)NC[C@@H](C(=O)N[C@@H](Cc2ccc(O)cc2)C(=O)N2C[C@H](C(N)=O)NC(=O)[C@@H]2CCCNC(=N)N)NC(=O)[C@H](CO)NC(=O)[C@H]([C@@H](C)CC)NC(=O)[C@H](CCCNC(=N)N)NC(=O)[C@H](CC(=O)O)NC(=O)[C@H](CCCC)NC(=O)[C@H](CCCNC(=N)N)NC(=O)CNC(=O)[C@@H](C)NC(=O)[C@H](Cc2ccccc2)NC(=O)[C@@H](Cc2c[nH]cn2)NC1=O [1-37] (Heptanoyl-[Dap][dH]F[dA]GR[Nle]DRIS[Dap]Y-X1; linker 1-12 via Suc)
3 | 8.30 | 98% | 97% |  |  |  | CCCCCCC(=O)NCC[C@@H]1NC(=O)CC[C@@H](C(=O)N[C@@H](Cc2ccc(O)cc2)C(=O)N2C[C@H](C(N)=O)NC(=O)[C@@H]2CCCNC(=N)N)NC(=O)[C@H](CO)NC(=O)[C@H]([C@@H](C)CC)NC(=O)[C@H](CCCNC(=N)N)NC(=O)[C@H](CC(=O)O)NC(=O)[C@@H](CCCC)NC(=O)[C@H](CCCNC(=N)N)NC(=O)CNC(=O)[C@@H](C)NC(=O)[C@H](Cc2ccccc2)NC(=O)[C@H](Cc2c[nH]cn2)NC1=O [3-75] ([Dab](Heptanoyl)HF[dA]GR[dNle]DRISEY-X1; lactam N-12)
4 | 8.00 | 93% |  | 84% |  |  | CCCCCCC(=O)NC[C@@H]1NC(=O)CC[C@@H](C(=O)N[C@@H](Cc2ccc(O)cc2)C(=O)N2C[C@H](C(N)=O)NC(=O)[C@@H]2CCCNC(=N)N)NC(=O)[C@H](CO)NC(=O)[C@H]([C@@H](C)CC)NC(=O)[C@H](CCCNC(=N)N)NC(=O)[C@H](CC(=O)O)NC(=O)[C@@H](CCCC)NC(=O)[C@H](CCCNC(=N)N)NC(=O)CNC(=O)[C@@H](C)NC(=O)[C@H](Cc2ccccc2)NC(=O)[C@H](Cc2c[nH]cn2)NC1=O [3-76] ([Dap](Heptanoyl)HF[dA]GR[dNle]DRISEY-X1; lactam N-12)
5 | 7.96 |  | 95% |  | 7.40 |  | CCCC[C@H]1NC(=O)[C@H](CCCNC(=N)N)NC(=O)CNC(=O)[C@@H](C)NC(=O)[C@H](Cc2ccccc2)NC(=O)[C@H](Cc2c[nH]cn2)NC(=O)[C@@H](NC(=O)[C@@H](C)N)CCC(=O)NCC[C@@H](C(=O)N[C@@H](Cc2ccc(O)cc2)C(=O)N2C[C@H](C(N)=O)NC(=O)[C@@H]2CCCNC(=N)N)NC(=O)[C@H](CO)NC(=O)[C@H]([C@@H](C)CC)NC(=O)[C@H](CCCNC(=N)N)NC(=O)[C@H](CC(=O)O)NC1=O [4-90] (H-[dA]EHF[dA]GR[dNle]DRIS[Dab]Y-X1; lactam 2-13)
6 | 9.60 |  |  |  | 9.22 | 6.6 min | CCCC[C@H]1NC(=O)[C@H](CCCNC(=N)N)NC(=O)CNC(=O)CNC(=O)[C@H](Cc2ccccc2)NC(=O)[C@H](Cc2c[nH]cn2)NC(=O)[C@@H](NC(=O)[C@@H](C)N)CC(=O)NCC[C@@H](C(=O)N[C@@H](Cc2ccc(O)cc2)C(=O)N2C[C@H](C(N)=O)NC(=O)[C@@H]2CCCNC(=N)N)NC(=O)[C@H](CO)NC(=O)[C@H]([C@@H](C)CC)NC(=O)[C@H](CCCNC(=N)N)NC(=O)[C@H](CC(=O)O)NC1=O [4-98] (H-[dA]DHFGGR[dNle]DRIS[Dab]Y-X1; lactam 2-13)
7 | 9.60 | 78% |  |  |  |  | CCCCCCC(=O)N[C@H]1CC(=O)NCC[C@@H](C(=O)N[C@@H](Cc2ccc(O)cc2)C(=O)N2C[C@H](C(N)=O)NC(=O)[C@@H]2CCCNC(=N)N)NC(=O)[C@H](CO)NC(=O)[C@H]([C@@H](C)CC)NC(=O)[C@H](CCCNC(=N)N)NC(=O)[C@H](CC(=O)O)NC(=O)[C@H](CCCC)NC(=O)[C@H](CCCNC(=N)N)NC(=O)CNC(=O)CNC(=O)[C@H](Cc2ccccc2)NC(=O)[C@H](Cc2c[nH]cn2)NC1=O [4-137] (Heptanoyl-DHFGGR[Nle]DRIS[Dab]Y-X1; lactam 1-12)
8 | 8.40 | 100% | 89% |  |  |  | CCCCCCC(=O)N[C@H]1CC(=O)NCC[C@@H](C(=O)N[C@@H](Cc2ccc(O)cc2)C(=O)N2C[C@H](C(N)=O)NC(=O)[C@@H]2CCCNC(=N)N)NC(=O)[C@H](CO)NC(=O)[C@H]([C@@H](C)CC)NC(=O)[C@H](CCCNC(=N)N)NC(=O)[C@H](CC(=O)O)NC(=O)[C@@H](CCCC)NC(=O)[C@H](CCCNC(=N)N)NC(=O)CNC(=O)[C@@H](C)NC(=O)[C@H](Cc2ccccc2)NC(=O)[C@H](Cc2c[nH]cn2)NC1=O [4-138] (Heptanoyl-DHF[dA]GR[dNle]DRIS[Dab]Y-X1; lactam 1-12)
9 | 9.70 | 69% |  |  |  |  | CCCC[C@@H]1NC(=O)[C@H](CCCNC(=N)N)NC(=O)CNC(=O)CNC(=O)[C@H](Cc2ccccc2)NC(=O)[C@H](Cc2c[nH]cn2)NC(=O)[C@@H](N)CC(=O)NCC[C@@H](C(=O)N[C@@H](Cc2ccc(O)cc2)C(=O)N2C[C@H](C(N)=O)NC(=O)[C@@H]2CCCNC(=N)N)NC(=O)[C@H](CO)NC(=O)[C@H]([C@@H](C)CC)NC(=O)[C@H](CCCNC(=N)N)NC(=O)[C@H](CC(=O)O)NC1=O [4-143] (H-DHFGGR[Nle]DRIS[Dab]Y-X1; lactam 1-12)
